Test systems include ACHN renal; T-47D breast; HCT-15 colon; HT29 colon; OVCAR-8 ovarian; RXF 393 renal; HOP-62 NSCLC; UO-31 renal.
Holding throughout (experiment): NCI tumour cell line growth inhibition, 48 h

SMILES strings stand for the structures.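 Compound exposure: 48 hours, 5 concentrations, 96-well plates. Here, GI50 denotes the concentration required for 50% inhibition of growth. TGI: total growth inhibition.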

The results in this text go back to PubChem BioAssay (NCI).

With `COC(=O)C1Cc2c([nH]c3ccccc23)-c2[nH]c3ccccc3c2CC(NC(C)=O)C(=O)N2CCCC2C(=O)N1` (centres undefined), the TGI with ACHN renal, with T-47D breast, with HCT-15 colon, with HT29 colon, in the assay on OVCAR-8 ovarian and in the assay with RXF 393 renal was greater than 100 µM in each case. The TGI in the assay on HOP-62 NSCLC and in the assay on UO-31 renal was greater than 100 µM in each case.

For the compound `O=C1C(c2c(O)[nH]c3ccc(I)cc23)=Nc2ccccc21`, the TGI with ACHN renal was 11.8 µM; with T-47D breast it was greater than 100 µM; in the assay on HCT-15 colon, greater than 100 µM; in the assay with HT29 colon, greater than 100 µM; in the assay on OVCAR-8 ovarian it was 4.74 µM; with RXF 393 renal, 34.6 µM. Besides, the TGI with HOP-62 NSCLC is 30 µM; with UO-31 renal it was 14.4 µM.

Regarding `CCOC(=O)[C@H](CO)Nc1c(O)c2c(c(O)c1Cl)C(=O)C=CC2=O`, the TGI in the assay with ACHN renal, in the assay with T-47D breast, in the assay on HCT-15 colon, in the assay with HT29 colon, in the assay with OVCAR-8 ovarian and in the assay on RXF 393 renal was greater than 10 µM in each case. In the assay with HOP-62 NSCLC, this compound came in with a TGI greater than 10 µM.

`Cc1csc2c(=O)n(COCc3ccccc3)c(=O)[nH]c12`: the TGI with ACHN renal, in the assay on HT29 colon, in the assay with OVCAR-8 ovarian, with RXF 393 renal, in the assay on HOP-62 NSCLC and with UO-31 renal was greater than 100 µM in each case.

On to `N#Cc1c(O)c(C=O)c(=O)n2c1[nH]c1ccccc12`, for which the TGI with ACHN renal, with HCT-15 colon, in the assay with HT29 colon, in the assay on OVCAR-8 ovarian, with RXF 393 renal and in the assay with HOP-62 NSCLC was greater than 100 µM in each case. This compound displayed a TGI in the assay with UO-31 renal greater than 100 µM.

For `COc1cc(C(=O)N(C(=O)N2CCCCC2)c2ccccc2)cc(OC)c1OC`, the TGI with ACHN renal, in the assay with T-47D breast, in the assay on HCT-15 colon, with OVCAR-8 ovarian, in the assay on HOP-62 NSCLC and in the assay with UO-31 renal was greater than 100 µM in each case.

Turning to `CCOC(=O)C1=C(C)N(c2ccc(Cl)cc2)C2(O)C=CC(Nc3ccc(Cl)cc3)=C3C(=O)N(c4ccccc4)C(=O)C312` (centres undefined), the TGI is 20 µM in the assay with ACHN renal; 19.4 µM with T-47D breast; 16.3 µM with HCT-15 colon; 16.9 µM in the assay with HT29 colon; 18.1 µM with OVCAR-8 ovarian; 14.9 µM in the assay with HOP-62 NSCLC. This compound also came in with a TGI in the assay on UO-31 renal of 20.3 µM.

Turning to `CCSc1[nH]c(NC(=NC(C)C)NC(=O)c2ccccc2)c(C(N)=O)c1C(N)=O`, the TGI in the assay on T-47D breast, in the assay with HCT-15 colon, with HT29 colon, in the assay on OVCAR-8 ovarian and in the assay on RXF 393 renal was greater than 10 µM throughout.

For `CC(C)(CO)NC(=O)c1cccs1`, the TGI in the assay with ACHN renal, in the assay with T-47D breast, with HCT-15 colon, with HT29 colon, in the assay on OVCAR-8 ovarian and in the assay with HOP-62 NSCLC was greater than 100 µM in each case. This compound also displayed a TGI in the assay with UO-31 renal greater than 100 µM.

On to `Cc1ccc(S(=O)(=O)NCCCSCCO)cc1`, for which the TGI with ACHN renal, with T-47D breast, in the assay on HCT-15 colon, with HT29 colon, in the assay with OVCAR-8 ovarian and in the assay on RXF 393 renal was greater than 100 µM throughout. This compound registered a TGI with UO-31 renal greater than 100 µM.

With `O=C(CBr)NCCc1c[nH]c2ccccc12`, the TGI in the assay with ACHN renal was 3.2 µM; in the assay on HCT-15 colon, 4.36 µM; in the assay on HT29 colon, 3.51 µM; in the assay on OVCAR-8 ovarian, greater than 48.3 µM; in the assay with RXF 393 renal it was 2.41 µM; with UO-31 renal it was 3.2 µM.

Consider `COC(=O)CN(CC1O[C@@H]2OC(C)(C)O[C@@H]2C1NC(C)=O)C(=O)OCc1ccccc1` (some centres undefined), for which the TGI in the assay with ACHN renal, in the assay with T-47D breast, in the assay with HCT-15 colon, with HT29 colon, in the assay with OVCAR-8 ovarian and with HOP-62 NSCLC was greater than 100 µM each time. Further, the TGI in the assay with UO-31 renal was greater than 100 µM.

As for `Cc1ccc(Cc2n[nH]c(=O)n2N2C(=O)c3ccccc3C2=O)cc1`, the TGI in the assay on ACHN renal, with T-47D breast, in the assay with HCT-15 colon, in the assay with HT29 colon, in the assay with OVCAR-8 ovarian and with HOP-62 NSCLC was greater than 100 µM in each case. The same compound displayed a TGI in the assay with UO-31 renal greater than 100 µM.

For the compound `O=C(NCCC1CN(S(=O)(=O)C(F)(F)F)c2ccccc21)OCc1ccccc1` (centres undefined), the TGI in the assay on ACHN renal, with HCT-15 colon, in the assay with HT29 colon, with OVCAR-8 ovarian, in the assay with RXF 393 renal and in the assay on HOP-62 NSCLC was greater than 100 µM throughout. The compound further came in with a TGI with UO-31 renal greater than 100 µM.

As for `Cc1cc2c(cc1-c1cc3c(cc1C)C(C(C)C)=C(O)C(=O)/C3=C\Nc1ccccn1)/C(=C/Nc1ccccn1)C(=O)C(O)=C2C(C)C`, the TGI in the assay on ACHN renal, in the assay on T-47D breast, in the assay on HCT-15 colon, in the assay with OVCAR-8 ovarian and in the assay with RXF 393 renal was greater than 100 µM throughout.

For the compound `COc1c(C)c(C/C=C(\C)CCCCO)c(OC)c2ccccc12`, the TGI was greater than 100 µM in the assay with ACHN renal; greater than 100 µM in the assay on HCT-15 colon; 43.7 µM in the assay on HT29 colon; greater than 100 µM in the assay on OVCAR-8 ovarian; greater than 100 µM in the assay with RXF 393 renal; greater than 100 µM in the assay with UO-31 renal.

In the case of `COc1ccc(C=NCCCN=Cc2ccc(OC)cc2O)c(O)c1`, the TGI in the assay on ACHN renal, in the assay with HCT-15 colon, in the assay with HT29 colon, in the assay with OVCAR-8 ovarian, with RXF 393 renal and in the assay with HOP-62 NSCLC was greater than 100 µM each time. In addition, the TGI in the assay with UO-31 renal is greater than 100 µM.

On to `COc1cc(O)c2c(=O)c(OC)c(-c3ccc(OC)c(OC)c3)oc2c1.[Sn]`, for which the GI50 was greater than 100 µM in the assay with ACHN renal; 7.91 µM with T-47D breast; greater than 100 µM in the assay with HT29 colon; greater than 100 µM in the assay with OVCAR-8 ovarian; greater than 100 µM in the assay on HOP-62 NSCLC. The TGI in the assay with ACHN renal, in the assay with T-47D breast, in the assay on HT29 colon, with OVCAR-8 ovarian, in the assay on RXF 393 renal and in the assay on HOP-62 NSCLC was greater than 100 µM each time. The compound also came in with a TGI in the assay with UO-31 renal greater than 100 µM.

For the compound `Cn1c(=O)oc2cc(C(=S)N3CCCCC3)ccc21`, the TGI in the assay with ACHN renal, with HCT-15 colon, in the assay with HT29 colon, in the assay on OVCAR-8 ovarian, in the assay on RXF 393 renal and in the assay on HOP-62 NSCLC was greater than 100 µM throughout.

As to `CCC1OC2C(CC=C(C)C)=C3OC(C)(O)C(C)(CC)C(=O)C3=C3OC(=O)C=C1C32` (centres undefined), the TGI in the assay with ACHN renal is 94.6 µM; in the assay on T-47D breast, greater than 100 µM; with HCT-15 colon, greater than 100 µM; in the assay on UO-31 renal it was 69.6 µM.

`N#CCN1CCCN(CC#N)CCN(CC#N)CCCN(CC#N)CC1`: the TGI in the assay with ACHN renal, in the assay on T-47D breast, in the assay with OVCAR-8 ovarian, in the assay on RXF 393 renal, in the assay on HOP-62 NSCLC and in the assay with UO-31 renal was greater than 100 µM each time.

Turning to `CNC(=O)c1cc(Oc2cccc3nc(NC(=O)Nc4ccc(F)cc4F)ccc23)ccn1`, the GI50 was 2.13 µM with ACHN renal, 0.302 µM in the assay on HCT-15 colon, 1.65 µM with OVCAR-8 ovarian and 1.24 µM with RXF 393 renal. Besides, the TGI in the assay with ACHN renal is greater than 50 µM; with HCT-15 colon it was greater than 50 µM; with OVCAR-8 ovarian, greater than 50 µM; in the assay with RXF 393 renal, 2.99 µM.

Take `CCOC(=O)[C@@]12NN=N[C@@H]1[C@H]1CO[C@H](c3ccccc3)N1C2=O`: the TGI turned out to be 28.2 µM in the assay on ACHN renal; 36 µM in the assay with T-47D breast; 32.9 µM in the assay with HCT-15 colon; 32.4 µM with HT29 colon; 23.7 µM in the assay with OVCAR-8 ovarian; 13.9 µM with RXF 393 renal. Further, the TGI in the assay with HOP-62 NSCLC was 30.6 µM.

Turning to `COc1cc(/C=C/C2=NN(c3cccc(S(=O)(=O)O)c3)C3(C2)SCC(=O)N3c2nc3ccccc3s2)cc(OC)c1OC` (centres undefined), the TGI in the assay on ACHN renal was greater than 100 µM; in the assay with T-47D breast it was 47.8 µM; in the assay on HCT-15 colon, greater than 100 µM; with HT29 colon it was greater than 100 µM; in the assay on OVCAR-8 ovarian it was greater than 100 µM; with RXF 393 renal it was greater than 100 µM. Besides, in the assay on UO-31 renal, the TGI was greater than 100 µM.

Regarding `O=C(NCCCc1cn[nH]c(=O)n1)c1cccc2nc3ccccc3nc12`, the TGI in the assay with ACHN renal, in the assay with T-47D breast, with HCT-15 colon, with HT29 colon, in the assay on OVCAR-8 ovarian and with RXF 393 renal was greater than 100 µM each time. The compound also had a TGI with HOP-62 NSCLC greater than 100 µM.

As for `Cc1cc(N)c2cc(NC(=O)Nc3ccc4nc(C)cc(N)c4c3)ccc2n1`, the TGI in the assay on ACHN renal, with T-47D breast, in the assay on HCT-15 colon, in the assay with HT29 colon, with OVCAR-8 ovarian and in the assay on HOP-62 NSCLC was greater than 100 µM each time. Besides, in the assay on UO-31 renal, the TGI was greater than 100 µM.

Regarding `c1ccc(Sc2nc(Sc3ccccc3)nc(Sc3ccccc3)n2)cc1`, the TGI with ACHN renal was greater than 100 µM; in the assay on T-47D breast, 45 µM; in the assay on HCT-15 colon, greater than 100 µM; in the assay with HT29 colon, greater than 100 µM; in the assay with RXF 393 renal, greater than 100 µM; in the assay with HOP-62 NSCLC, greater than 100 µM. The compound also gave a TGI with UO-31 renal greater than 100 µM.
